Measured values taken from ChEMBL document CHEMBL6134873, “Identification of Novel Cyclobutane-Based Derivatives as Potent Acetyl-CoA Carboxylase Allosteric Inhibitors for Nonalcoholic Steatohepatitis Drug Discovery” (J Med Chem, 2025).

What was measured:
Cytochrome P450 2C9 = Cytochrome P450 2C9 (Homo sapiens, UniProt P11712); assay: Inhibition of CYP2C9 (unknown origin); assay type: ADME
[1] = Stability of compound assessed as remaining parent compound by measuring retention time; assay type: physicochemical
[2] = MRT (0 to t) in Sprague-Dawley rat at 1 mg/kg, iv measured for 0.25 to 24 hrs by LC-MS/MS analysis; assay type: ADME, organism-based; conditions: in vivo, time 0.25-24 hrs
[3] = Half life in Sprague-Dawley rat at 3 mg/kg, po measured for 0.25 to 24 hrs by LC-MS/MS analysis; assay type: ADME, organism-based; conditions: in vivo, time 0.25-24 hrs
[4] = molecular target: Voltage-gated inwardly rectifying potassium channel KCNH2 (Homo sapiens, UniProt Q12809); assay: Inhibition of hERG; assay type: toxicity
[5] = Stability of compound assessed as (1S,3s)-3-(1-((R)-2-(2-hydroxyphenyl)-2-((tetrahydro-2H-pyran-4-yl)oxy)ethyl)-5-methyl-6-(oxazol-2-yl)-2,4-dioxo-1,4-dihydrothieno[2,3-d]pyrimidin-3(2H)-yl)-1-methylcyclobutane-1-carboxylic acid metabolite formation by measuring retention time; assay type: ADME
[6] = Volume of distribution in Sprague-Dawley rat at 1 mg/kg, iv measured for 0.25 to 24 hrs by LC-MS/MS analysis; assay type: ADME, organism-based; conditions: in vivo, time 0.25-24 hrs
[7] = Intrinsic clearance in rat liver microsomes; assay type: ADME, Microsome; conditions: read-out: CLH
Cytochrome P450 2D6 = Cytochrome P450 2D6 (Homo sapiens, UniProt P10635); assay: Inhibition of CYP2D6 (unknown origin); assay type: ADME
[8] = Suppression of Col1A1 mRNA expression in TGF-beta1-treated human LX2 cells incubated for 24 hrs by qPCR analysis; assay type: functional, cell-based; conditions: LX-2, 24 h
Cytochrome P450 3A4 = Cytochrome P450 3A4 (Homo sapiens, UniProt P08684); assay: Inhibition of CYP3A4 (unknown origin) using testosterone as substrate; assay type: ADME
[9] = Biodistribution in 12 hr-fasted male wild-type Sprague-Dawley rat assessed as increase in ratio of drug concentration in kidney/plasma at 3 mg/kg, po measured after 4 hrs by LC-MS/MS analysis; assay type: ADME, organism-based; conditions: in vivo
[10] = Half life in Sprague-Dawley rat at 1 mg/kg, iv measured for 0.25 to 24 hrs by LC-MS/MS analysis; assay type: ADME, organism-based; conditions: in vivo, time 0.25-24 hrs
[11] = Stability of compound assessed as compound isomerization by measuring retention time; assay type: physicochemical
in vivo [12] = conditions: Sprague-Dawley, rat, liver, po, 3 mg/kg
Description: Drug concentration in liver of Sprague-Dawley rat at 3 mg/kg, po measured after 0.25 hrs by LC-MS/MS analysis

in vivo [13] = conditions: Sprague-Dawley, rat, plasma, po, 3 mg/kg
Description: Drug concentration in plasma of Sprague-Dawley rat at 3 mg/kg, po measured after 4 hrs by LC-MS/MS analysis

[14] = Toxicity in Sprague-Dawley rat model of DEN-induced liver fibrosis assessed as body weight loss at 3 to 10 mg/kg, po qd treated for 4 weeks; assay type: organism-based; conditions: in vivo, 672 h, dose 3-10 mg/kg
[15] = Inhibition of fatty acid synthesis in human HepG2 cells preincubated for 1.5 hrs followed by [14C] acetate addition measured after 1.5 hrs by liquid scintillation counter analysis; assay type: functional, cell-based
in vivo [16] = conditions: Sprague-Dawley, rat, liver, po, 3 mg/kg; remark: listed apart in the source
Description: Drug concentration in liver of Sprague-Dawley rat at 3 mg/kg, po measured after 1 hr by LC-MS/MS analysis

Cytochrome P450 1A2 = molecular target: T1, Cytochrome P450 1A2 (Homo sapiens, UniProt P05177); assay: Inhibition of CYP1A2 (unknown origin); assay type: ADME
T1 sequence (P05177 whole entry): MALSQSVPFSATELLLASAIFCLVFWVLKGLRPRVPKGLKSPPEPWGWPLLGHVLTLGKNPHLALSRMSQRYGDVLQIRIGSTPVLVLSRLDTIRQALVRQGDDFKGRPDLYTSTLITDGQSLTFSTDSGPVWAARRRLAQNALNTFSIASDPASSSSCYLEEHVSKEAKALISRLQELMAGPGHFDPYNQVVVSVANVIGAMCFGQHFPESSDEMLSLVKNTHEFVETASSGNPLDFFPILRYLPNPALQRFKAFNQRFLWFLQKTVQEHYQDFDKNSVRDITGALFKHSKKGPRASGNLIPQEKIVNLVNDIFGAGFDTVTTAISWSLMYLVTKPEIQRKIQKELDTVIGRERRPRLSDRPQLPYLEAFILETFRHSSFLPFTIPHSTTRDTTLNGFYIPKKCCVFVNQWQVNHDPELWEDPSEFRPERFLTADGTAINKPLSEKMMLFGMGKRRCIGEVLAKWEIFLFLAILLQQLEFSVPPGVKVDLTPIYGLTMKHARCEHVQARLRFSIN

Acetyl-CoA carboxylase 1 = Acetyl-CoA carboxylase 1 (Homo sapiens, UniProt Q13085)
Description: Inhibition of recombinant human ACC1 using acetyl-Co A as substrate incubated for 60 mins in presence of ATP by ADP-Glo assay

[17] = Toxicity in Sprague-Dawley rat model of DEN-induced liver fibrosis assessed as drug tolerance at 3 to 10 mg/kg, po qd treated for 4 weeks; assay type: organism-based; conditions: in vivo, 672 h, dose 3-10 mg/kg
in vivo [18] = conditions: Sprague-Dawley, rat, plasma, po, 3 mg/kg; remark: listed apart in the source
Description: Drug concentration in plasma of Sprague-Dawley rat at 3 mg/kg, po measured after 1 hr by LC-MS/MS analysis

Acetyl-CoA carboxylase 2 = Acetyl-CoA carboxylase 2 (Homo sapiens, UniProt O00763)
Description: Inhibition of recombinant human ACC2 using acetyl-Co A as substrate incubated for 60 mins in presence of ATP by ADP-Glo assay

[19] = Cmax in Sprague-Dawley rat at 3 mg/kg, po measured for 0.25 to 24 hrs by LC-MS/MS analysis; assay type: ADME, organism-based; conditions: in vivo, time 0.25-24 hrs
[20] = AUC (0 to t) in Sprague-Dawley rat at 3 mg/kg, po measured for 0.25 to 24 hrs by LC-MS/MS analysis; assay type: ADME, organism-based; conditions: in vivo, time 0.25-24 hrs
Cytochrome P450 2B6 = molecular target: T2, Cytochrome P450 2B6 (Homo sapiens, UniProt P20813); assay: Inhibition of CYP2B6 (unknown origin); assay type: ADME
T2 sequence (P20813 whole entry): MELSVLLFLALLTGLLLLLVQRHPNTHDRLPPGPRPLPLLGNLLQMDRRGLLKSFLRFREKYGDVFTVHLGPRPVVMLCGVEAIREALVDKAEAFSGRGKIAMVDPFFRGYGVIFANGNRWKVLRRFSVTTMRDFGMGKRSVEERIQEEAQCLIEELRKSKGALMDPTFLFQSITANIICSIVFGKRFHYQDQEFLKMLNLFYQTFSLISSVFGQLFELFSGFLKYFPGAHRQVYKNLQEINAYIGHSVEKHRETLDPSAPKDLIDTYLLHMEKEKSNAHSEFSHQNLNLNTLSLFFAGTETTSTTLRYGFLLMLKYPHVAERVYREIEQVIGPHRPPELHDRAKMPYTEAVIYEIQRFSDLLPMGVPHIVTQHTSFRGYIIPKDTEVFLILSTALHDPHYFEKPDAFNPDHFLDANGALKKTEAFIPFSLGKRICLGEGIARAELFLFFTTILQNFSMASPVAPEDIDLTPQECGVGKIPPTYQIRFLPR

Acetyl-CoA carboxylase 2, sequence (O00763 whole entry): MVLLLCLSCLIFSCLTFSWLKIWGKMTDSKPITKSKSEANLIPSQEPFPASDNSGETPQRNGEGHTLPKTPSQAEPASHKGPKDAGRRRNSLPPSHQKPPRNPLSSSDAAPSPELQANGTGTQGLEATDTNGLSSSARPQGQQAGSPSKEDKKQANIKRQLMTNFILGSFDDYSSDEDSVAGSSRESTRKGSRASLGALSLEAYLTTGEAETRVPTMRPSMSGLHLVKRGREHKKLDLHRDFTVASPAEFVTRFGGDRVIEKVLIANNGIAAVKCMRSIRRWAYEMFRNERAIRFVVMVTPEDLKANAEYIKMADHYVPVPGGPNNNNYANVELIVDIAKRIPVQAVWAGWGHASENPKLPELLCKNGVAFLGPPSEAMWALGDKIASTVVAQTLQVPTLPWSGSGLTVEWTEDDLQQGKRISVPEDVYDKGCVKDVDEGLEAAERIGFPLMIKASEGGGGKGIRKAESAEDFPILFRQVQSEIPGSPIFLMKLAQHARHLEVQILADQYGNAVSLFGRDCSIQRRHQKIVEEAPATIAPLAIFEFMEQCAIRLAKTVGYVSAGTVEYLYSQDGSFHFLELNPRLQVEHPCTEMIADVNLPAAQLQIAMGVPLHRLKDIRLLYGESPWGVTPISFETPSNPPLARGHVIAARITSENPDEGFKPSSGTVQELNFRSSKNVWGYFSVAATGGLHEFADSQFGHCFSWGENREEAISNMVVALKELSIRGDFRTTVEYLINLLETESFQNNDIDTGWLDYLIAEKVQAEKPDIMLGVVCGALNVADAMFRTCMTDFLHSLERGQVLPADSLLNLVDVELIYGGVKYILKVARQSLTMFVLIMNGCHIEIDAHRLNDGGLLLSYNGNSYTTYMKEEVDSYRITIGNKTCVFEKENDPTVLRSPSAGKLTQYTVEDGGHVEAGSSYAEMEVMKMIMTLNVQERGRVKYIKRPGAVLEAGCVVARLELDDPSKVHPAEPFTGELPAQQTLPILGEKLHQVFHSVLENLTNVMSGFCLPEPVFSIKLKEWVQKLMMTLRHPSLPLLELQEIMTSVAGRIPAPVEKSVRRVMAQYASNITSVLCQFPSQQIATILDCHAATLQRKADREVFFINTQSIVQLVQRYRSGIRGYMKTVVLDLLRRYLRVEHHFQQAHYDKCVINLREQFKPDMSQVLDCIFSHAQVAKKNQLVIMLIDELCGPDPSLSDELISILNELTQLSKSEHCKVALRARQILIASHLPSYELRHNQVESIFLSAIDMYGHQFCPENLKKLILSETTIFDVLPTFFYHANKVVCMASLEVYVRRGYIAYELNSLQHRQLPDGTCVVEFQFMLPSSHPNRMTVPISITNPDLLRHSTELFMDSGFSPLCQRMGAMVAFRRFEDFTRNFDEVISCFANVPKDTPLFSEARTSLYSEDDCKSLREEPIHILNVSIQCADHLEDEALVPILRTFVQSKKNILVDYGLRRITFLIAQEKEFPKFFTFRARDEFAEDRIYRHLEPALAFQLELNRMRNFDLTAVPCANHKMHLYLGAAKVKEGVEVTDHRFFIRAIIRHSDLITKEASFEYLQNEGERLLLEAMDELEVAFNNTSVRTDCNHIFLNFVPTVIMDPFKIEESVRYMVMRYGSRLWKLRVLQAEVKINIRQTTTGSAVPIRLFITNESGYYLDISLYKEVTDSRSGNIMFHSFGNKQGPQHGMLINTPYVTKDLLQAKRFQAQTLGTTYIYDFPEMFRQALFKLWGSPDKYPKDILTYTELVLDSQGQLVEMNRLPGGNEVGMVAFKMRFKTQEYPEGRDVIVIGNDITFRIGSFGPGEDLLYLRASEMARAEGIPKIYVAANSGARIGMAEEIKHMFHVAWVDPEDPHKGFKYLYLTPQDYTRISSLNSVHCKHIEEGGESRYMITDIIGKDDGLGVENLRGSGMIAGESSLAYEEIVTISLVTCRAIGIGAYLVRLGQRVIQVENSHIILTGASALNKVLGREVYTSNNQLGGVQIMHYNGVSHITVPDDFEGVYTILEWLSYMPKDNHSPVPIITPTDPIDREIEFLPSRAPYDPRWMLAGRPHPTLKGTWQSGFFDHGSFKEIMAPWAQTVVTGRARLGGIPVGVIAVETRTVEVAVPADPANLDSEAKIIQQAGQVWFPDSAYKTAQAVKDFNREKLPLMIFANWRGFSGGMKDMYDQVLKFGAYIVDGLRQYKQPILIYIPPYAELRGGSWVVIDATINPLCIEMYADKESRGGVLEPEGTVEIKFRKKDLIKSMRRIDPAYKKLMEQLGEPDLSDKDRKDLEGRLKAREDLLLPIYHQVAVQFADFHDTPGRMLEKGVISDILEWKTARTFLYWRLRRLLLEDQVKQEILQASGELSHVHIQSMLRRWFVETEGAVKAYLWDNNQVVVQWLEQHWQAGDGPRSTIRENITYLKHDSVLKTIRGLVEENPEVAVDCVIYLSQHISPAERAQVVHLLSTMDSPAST
Cytochrome P450 2C9, sequence (P11712 whole entry): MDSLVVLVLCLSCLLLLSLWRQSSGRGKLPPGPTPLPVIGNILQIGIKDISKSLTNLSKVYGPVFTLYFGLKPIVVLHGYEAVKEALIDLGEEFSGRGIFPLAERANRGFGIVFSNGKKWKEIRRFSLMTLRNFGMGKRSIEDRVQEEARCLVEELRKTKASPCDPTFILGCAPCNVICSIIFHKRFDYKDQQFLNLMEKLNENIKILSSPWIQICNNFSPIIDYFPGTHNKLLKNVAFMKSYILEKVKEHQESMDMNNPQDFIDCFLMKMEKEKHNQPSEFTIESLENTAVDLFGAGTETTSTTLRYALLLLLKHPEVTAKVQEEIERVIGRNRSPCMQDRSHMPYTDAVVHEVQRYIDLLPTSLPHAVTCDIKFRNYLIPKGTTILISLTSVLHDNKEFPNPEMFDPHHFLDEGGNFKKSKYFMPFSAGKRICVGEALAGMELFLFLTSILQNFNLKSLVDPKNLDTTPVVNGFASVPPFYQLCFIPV
Cytochrome P450 3A4, sequence (P08684 whole entry): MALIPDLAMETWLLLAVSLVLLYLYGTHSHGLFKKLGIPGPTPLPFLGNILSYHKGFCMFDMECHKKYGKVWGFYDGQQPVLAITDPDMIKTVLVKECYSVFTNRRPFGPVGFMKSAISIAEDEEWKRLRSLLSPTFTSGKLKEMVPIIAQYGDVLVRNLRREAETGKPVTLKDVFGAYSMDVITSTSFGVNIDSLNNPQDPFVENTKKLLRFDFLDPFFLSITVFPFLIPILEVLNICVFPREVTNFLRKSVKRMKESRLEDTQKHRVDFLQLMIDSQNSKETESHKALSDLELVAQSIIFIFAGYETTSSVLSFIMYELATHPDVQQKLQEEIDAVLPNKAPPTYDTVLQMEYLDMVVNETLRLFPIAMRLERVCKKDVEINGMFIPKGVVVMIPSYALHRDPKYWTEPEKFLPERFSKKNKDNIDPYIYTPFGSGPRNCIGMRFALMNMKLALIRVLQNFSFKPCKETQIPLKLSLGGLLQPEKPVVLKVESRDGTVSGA
Cytochrome P450 2D6, sequence (P10635 whole entry): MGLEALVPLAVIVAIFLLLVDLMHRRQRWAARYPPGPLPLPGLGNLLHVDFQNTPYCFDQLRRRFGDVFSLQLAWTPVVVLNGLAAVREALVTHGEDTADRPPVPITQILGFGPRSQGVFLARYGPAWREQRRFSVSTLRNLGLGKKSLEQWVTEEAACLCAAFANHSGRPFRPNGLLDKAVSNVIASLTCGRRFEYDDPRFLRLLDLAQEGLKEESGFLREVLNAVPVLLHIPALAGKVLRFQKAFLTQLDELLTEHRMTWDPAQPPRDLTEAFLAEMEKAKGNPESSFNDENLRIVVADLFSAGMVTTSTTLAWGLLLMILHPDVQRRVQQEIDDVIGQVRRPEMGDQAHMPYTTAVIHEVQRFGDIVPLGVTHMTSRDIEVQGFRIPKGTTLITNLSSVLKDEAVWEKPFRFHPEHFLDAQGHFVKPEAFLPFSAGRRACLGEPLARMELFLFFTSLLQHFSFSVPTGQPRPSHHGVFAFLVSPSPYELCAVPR
Voltage-gated inwardly rectifying potassium channel KCNH2, sequence (Q12809 whole entry): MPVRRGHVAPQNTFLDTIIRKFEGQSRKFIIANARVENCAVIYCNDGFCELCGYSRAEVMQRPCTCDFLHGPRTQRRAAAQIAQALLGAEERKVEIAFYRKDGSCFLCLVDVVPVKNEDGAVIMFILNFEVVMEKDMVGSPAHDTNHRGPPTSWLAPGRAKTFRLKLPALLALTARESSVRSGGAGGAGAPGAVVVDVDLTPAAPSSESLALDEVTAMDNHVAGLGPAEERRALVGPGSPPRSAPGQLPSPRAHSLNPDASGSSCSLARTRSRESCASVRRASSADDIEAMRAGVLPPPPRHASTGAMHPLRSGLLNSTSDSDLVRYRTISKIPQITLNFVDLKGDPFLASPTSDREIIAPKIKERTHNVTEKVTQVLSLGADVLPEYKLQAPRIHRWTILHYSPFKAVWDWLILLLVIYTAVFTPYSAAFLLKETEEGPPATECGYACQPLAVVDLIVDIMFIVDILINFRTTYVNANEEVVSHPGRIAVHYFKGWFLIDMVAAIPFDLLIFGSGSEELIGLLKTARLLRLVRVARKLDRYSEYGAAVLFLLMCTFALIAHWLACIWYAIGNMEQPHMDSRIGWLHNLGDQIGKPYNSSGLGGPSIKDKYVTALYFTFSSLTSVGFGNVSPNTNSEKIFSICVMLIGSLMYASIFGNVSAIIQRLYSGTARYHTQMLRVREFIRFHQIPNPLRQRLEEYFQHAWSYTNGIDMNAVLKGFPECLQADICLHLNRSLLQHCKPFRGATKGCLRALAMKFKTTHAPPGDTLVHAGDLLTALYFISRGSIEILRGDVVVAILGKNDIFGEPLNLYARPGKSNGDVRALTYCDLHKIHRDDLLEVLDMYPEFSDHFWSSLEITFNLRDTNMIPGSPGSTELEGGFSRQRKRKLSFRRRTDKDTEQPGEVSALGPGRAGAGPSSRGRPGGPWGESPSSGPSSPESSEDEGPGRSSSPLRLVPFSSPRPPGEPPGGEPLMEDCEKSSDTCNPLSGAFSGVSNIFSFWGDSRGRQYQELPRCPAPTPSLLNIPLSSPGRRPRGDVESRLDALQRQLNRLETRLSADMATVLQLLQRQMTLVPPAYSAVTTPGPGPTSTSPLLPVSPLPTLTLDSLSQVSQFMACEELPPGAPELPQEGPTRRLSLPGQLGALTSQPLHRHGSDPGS

COc1ccccc1[C@H](Cn1c(=O)n([C@H]2C[C@@](C)(C(=O)O)C2)c(=O)c2c(C)c(-c3ncco3)sc21)OC1CCOCC1
IC50 (Cytochrome P450 2C9): > 30 µM | Retention_time [1]: 10.61 min | MRT last [2]: 18 min | half-life [3]: 198 min | IC50 [4]: > 30 µM | Retention_time [5]: 9.36 min | Vd [6]: 2.8 L/kg | CLint scaled [7]: < 1.04 L/h/kg | IC50 (Cytochrome P450 2D6): > 30 µM | IC50 [8]: 0.507 µM | IC50 (Cytochrome P450 3A4): > 30 µM | Drug uptake [9]: Not_active | half-life [10]: 30 min | Retention_time [11]: 11.01 min | concentration at 0.25 h (in vivo [12]): 3.39 µg/mL | concentration at 4 h (in vivo [13]): 0.0728 µg/mL | Activity [14]: Non-toxic | IC50 [15]: 0.0069 µM | concentration at 1 h (in vivo [16]): 2.94 µg/mL | IC50 (Cytochrome P450 1A2): > 30 µM | IC50 (Acetyl-CoA carboxylase 1): 0.00073 µM | Activity [17]: Non-toxic | concentration at 1 h (in vivo [18]): 0.0568 µg/mL | IC50 (Acetyl-CoA carboxylase 2): 0.00374 µM | Cmax [19]: 0.038 µg/mL | AUC(0-t) [20]: 0.174 µg·h/mL | IC50 (Cytochrome P450 2B6): > 30 µM
